From patent US20150065447A1, “SURVIVAL BENEFIT IN PATIENTS WITH SOLID TUMORS WITH ELEVATED C-REACTIVE PROTEIN LEVELS” (Incyte Corporation, priority 2013, published 2015)
Where “and” joins values, the source holds several entries; their conditions need not be identical. Identical values can stand only once.

Tests used:
[1] = target: T1, human JAK1 (a.a. 837-1142) (Homo sapiens, UniProt P23458); experiment: In vitro JAK Kinase Assay (HTRF), JAK1; assay type: biochemical; settings: 1 mM ATP
T1 construct: human JAK1 (a.a. 837-1142); His tag (N); made in house; host or cells: insect cells (baculovirus)
T1 sequence (P23458 849-1154): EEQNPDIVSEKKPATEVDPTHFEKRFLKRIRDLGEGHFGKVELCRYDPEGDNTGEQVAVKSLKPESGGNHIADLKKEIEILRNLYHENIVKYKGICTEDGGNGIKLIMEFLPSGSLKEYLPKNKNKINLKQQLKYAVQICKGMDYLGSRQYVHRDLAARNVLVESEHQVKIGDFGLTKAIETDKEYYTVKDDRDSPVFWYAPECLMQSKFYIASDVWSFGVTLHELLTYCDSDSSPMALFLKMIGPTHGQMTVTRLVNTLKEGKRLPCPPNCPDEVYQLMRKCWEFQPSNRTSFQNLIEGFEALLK
Description: (§1) The catalytic activity of JAK1 and JAK2 was assayed by measuring the phosphorylation of a biotinylated peptide. The phosphorylated peptide was detected by homogenous time resolved fluorescence (HTRF). […] Reactions were carried out at room temperature for 1 hr and then stopped with 20 μL 45 mM EDTA, 300 nM SA-APC, 6 nM Eu-Py20 in assay buffer (Perkin Elmer, Boston, Mass.). Binding to the Europium labeled antibody took place for 40 minutes and HTRF signal was measured on a Fusion plate reader (Perkin Elmer, Boston, Mass.).

[2] = target: T2, human JAK2 (a.a. 828-1132) (Homo sapiens, UniProt O60674); experiment: In vitro JAK Kinase Assay (HTRF), JAK2 (for JAK2/JAK1 ratio); assay type: biochemical; settings: ratio of IC50s, 1 mM ATP
T2 construct: JAK2 (a.a. 828-1132); His tag (N); made in house; host or cells: insect cells (baculovirus)
T2 sequence (O60674 828-1132): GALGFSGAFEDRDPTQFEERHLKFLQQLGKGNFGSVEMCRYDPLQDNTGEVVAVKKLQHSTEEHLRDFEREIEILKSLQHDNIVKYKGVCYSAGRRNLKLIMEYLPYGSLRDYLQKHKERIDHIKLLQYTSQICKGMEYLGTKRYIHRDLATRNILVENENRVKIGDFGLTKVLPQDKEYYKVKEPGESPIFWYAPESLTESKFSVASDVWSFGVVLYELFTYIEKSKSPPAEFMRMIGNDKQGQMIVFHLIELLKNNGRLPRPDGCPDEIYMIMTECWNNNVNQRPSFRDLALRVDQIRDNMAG
Description: as §1

[3] = system: Subjects with metastatic pancreatic adenocarcinoma that is recurrent or treatment refractory; experiment: Randomized, double-blind study of capecitabine + ruxolitinib phosphate vs capecitabine + placebo, survival by baseline CRP / mGPS; settings: for Hazard ratio (Rux/Pbo): Cox regression with formal interaction testing; for Active vs Control Hazard Ratio: ruxolitinib vs placebo; for Number of Subjects with Disease Progression, Observed: progression-free survival (death or progressive disease by RECIST 1.1)
Description: Baseline C-reactive protein (CRP) levels were measured for each patient prior to treatment in Arm 1 and Arm 2. Serum CRP concentrations were measured by RMB (RBM multiplexed Luminex®) commercial assay (Myriad RBM). […] The baseline CRP level was calculated on a per patient basis. The patients comprised two groups. Group 1 included all patients who were randomized and took Study Drug. […] For Group 1, the CRP level was the last tested CRP level taken before first dose of Study Drug. For Group 2, the last available value of CRP was taken, if available, for example from screening procedures. With baseline CRP levels for all patients, the median was calculated using normal statistical methods known to one skilled in the art.

[4] = Cox regression analysis of overall survival using baseline predictors, CRP > 13 mg/L, ruxolitinib arm
[5] = overall survival, C-Reactive Protein > 13 (μg/mL), Intent-to-Treat, capecitabine + ruxolitinib arm, N = 31
[6] = overall survival, C-Reactive Protein > 13 (μg/mL), ruxolitinib arm, N = 31
[7] = overall survival, C-Reactive Protein ≦ 13 (μg/mL), Intent-to-Treat, capecitabine + ruxolitinib arm, N = 28
[8] = overall survival, C-Reactive Protein ≦ 13 (μg/mL), ruxolitinib arm, N = 28
[9] = patients with CRP<13 mg/L, ruxolitinib group
[10] = patients with CRP>13 mg/L, ruxolitinib group
[11] = progression-free survival, Table 3, C-Reactive Protein ≦ 13 (μg/mL), ruxolitinib arm, N = 28
[12] = progression-free survival, Table 4, C-Reactive Protein ≦ 13 (μg/mL), ruxolitinib arm, N = 31

N#CCC(C1CCN(c2cccc(Cl)n2)C1)n1cc(-c2ncnc3[nH]ccc23)cn1 (single isomer, unassigned) [Compound 3, 3-[1-(6-chloropyridin-2-yl)pyrrolidin-3-yl]-3-[4-(7H-pyrrolo[2,3-d]pyrimidin-4-yl)-1H-pyrazol-1-yl]propanenitrile]
IC50 [1]: < 10 nM
JAK2/JAK1 [2]: >10

C[C@@H](O)c1nc2cnc3ccsc3c2n1[C@H]1CC[C@H](CC#N)OC1 [Compound 1, ((2R,5S)-5-{2-[(1R)-1-hydroxyethyl]-1H-imidazo[4,5-d]thieno[3,2-b]pyridin-1-yl}tetrahydro-2H-pyran-2-yl)acetonitrile]
IC50 [1]: < 100 nM
JAK2/JAK1 [2]: >10

N#CCC(C1CCN(c2nc3cccnc3o2)C1)n1cc(-c2ncnc3[nH]ccc23)cn1 (stereo not shown) [Compound 4, 3-(1-[1,3]oxazolo[5,4-b]pyridin-2-ylpyrrolidin-3-yl)-3-[4-(7H-pyrrolo[2,3-d]pyrimidin-4-yl)-1H-pyrazol-1-yl]propanenitrile]
IC50 [1]: < 10 nM
JAK2/JAK1 [2]: >10

N#CCC(CN1CCN(C(=O)c2ccc(C#N)cc2F)CC1)n1cc(-c2ncnc3[nH]ccc23)cn1 (stereo not shown) [Compound 5, 4-[(4-{3-cyano-2-[4-(7H-pyrrolo[2,3-d]pyrimidin-4-yl)-1H-pyrazol-1-yl]propyl}piperazin-1-yl)carbonyl]-3-fluorobenzonitrile]
IC50 [1]: < 10 nM
JAK2/JAK1 [2]: >10

N#CCC(CN1CCN(C(=O)c2ccc(C#N)cc2F)CC1)n1ccc(-c2ncnc3[nH]ccc23)c1 (stereo not drawn) [Compound 6, 4-[(4-{3-cyano-2-[3-(7H-pyrrolo[2,3-d]pyrimidin-4-yl)-1H-pyrrol-1-yl]propyl}piperazin-l-yl)carbonyl]-3-fluorobenzonitrile]
IC50 [1]: < 10 nM
JAK2/JAK1 [2]: >10

N#CCC1(n2cc(-c3ncnc4[nH]ccc34)cn2)CN(C2CCN(C(=O)c3ccnc(C(F)(F)F)c3F)CC2)C1 [Compound 7, {l-{l-[3-Fluoro-2-(trifluoromethyl)isonicotinoyl]piperidin-4-yl}-3-[4-(7H-pyrrolo[2,3-d]pyrimidin-4-yl)-1H-pyrazol-1-yl]azetidin-3-yl}acetonitrile]
IC50 [1]: < 10 nM
JAK2/JAK1 [2]: >10

N#CCC1(n2cc(-c3ncnc4[nH]ccc34)cn2)CN(C2CCN(C(=O)Nc3ccc(F)cc3C(F)(F)F)CC2)C1 [Compound 8, 4-{3-(Cyanomethyl)-3-[4-(7H-pyrrolo[2,3-d]pyrimidin-4-yl)-1H-pyrazol-1-yl]azetidin-1-yl}-N-[4-fluoro-2-(trifluoromethyl)phenyl]piperidine-1-carboxamide]
IC50 [1]: < 10 nM
JAK2/JAK1 [2]: >10

N#CCC1(n2cc(-c3ncnc4[nH]ccc34)cn2)CN(C2CCN(C(=O)c3ccnc(C(F)(F)F)n3)CC2)C1 [Compound 9, [3-[4-(7H-pyrrolo[2,3-d]pyrimidin-4-yl)-1H-pyrazol-1-yl]-1-(l-{[2-(trifluoromethyl)pyrimidin-4-yl]carbonyl}piperidin-4-yl)azetidin-3-yl]acetonitrile]
IC50 [1]: < 10 nM
JAK2/JAK1 [2]: >10

N#CC[C@]1(n2cc(-c3ncnc4[nH]ccc34)cn2)C[C@H](N2CCN(C(=O)c3ccnc(C(F)(F)F)n3)CC2)C1 [Compound 10, [trans-1-[4-(7H-pyrrolo[2,3-d]pyrimidin-4-yl)-1H-pyrazol-1-yl]-3-(4-{[2-(trifluoromethyl)pyrimidin-4-yl]carbonyl}piperazin-1-yl)cyclobutyl]acetonitrile]
IC50 [1]: < 10 nM
JAK2/JAK1 [2]: >10

N#CC[C@]1(n2cc(-c3ncnc4[nH]ccc34)cn2)C[C@H](N2CCC(Oc3cc(CN4CC(O)C4)cc(C(F)(F)F)n3)CC2)C1 [Compound 11, {trans-3-(4-{[4-[(3-hydroxyazetidin-1-yl)methyl]-6-(trifluoromethyl)pyridin-2-yl]oxy}piperidin-1-yl)-1-[4-(7H-pyrrolo[2,3-d]pyrimidin-4-yl)-1H-pyrazol-1-yl]cyclobutyl}acetonitrile]
IC50 [1]: < 10 nM
JAK2/JAK1 [2]: >10

N#CC[C@]1(n2cc(-c3ncnc4[nH]ccc34)cn2)C[C@H](N2CCC(Oc3cc(CN4CCC[C@H]4CO)cc(C(F)(F)F)n3)CC2)C1 [Compound 12, {trans-3-(4-{[4-{[(2S)-2-(hydroxymethyl)pyrrolidin-1-yl]methyl}-6-(trifluoromethyl)pyridin-2-yl]oxy}piperidin-1-yl)-1-[4-(7H-pyrrolo[2,3-d]pyrimidin-4-yl)-1H-pyrazol-1-yl]cyclobutyl}acetonitrile]
IC50 [1]: < 10 nM
JAK2/JAK1 [2]: >10

N#CC[C@]1(n2cc(-c3ncnc4[nH]ccc34)cn2)C[C@H](N2CCC(Oc3cc(CN4CCC[C@@H]4CO)cc(C(F)(F)F)n3)CC2)C1 [Compound 13, {trans-3-(4-{[4-{[(2R)-2-(hydroxymethyl)pyrrolidin-1-yl]methyl}-6-(trifluoromethyl)pyridin-2-yl]oxy}piperidin-1-yl)-1-[4-(7H-pyrrolo[2,3-d]pyrimidin-4-yl)-1H-pyrazol-1-yl]cyclobutyl}acetonitrile]
IC50 [1]: < 10 nM
JAK2/JAK1 [2]: >10

C[C@H](NC(=O)c1cc(F)c(N2CC(CC#N)(n3cc(-c4ncnc5[nH]ccc45)cn3)C2)cc1F)C(F)(F)F [Compound 16, 4-{3-(cyanomethyl)-3-[4-(7H-pyrrolo[2,3-d]pyrimidin-4-yl)-1H-pyrazol-1-yl]azetidin-1-yl}-2,5-difluoro-N-[(1S)-2,2,2-trifluoro-1-methylethyl]benzamide]
IC50 [1]: < 10 nM
JAK2/JAK1 [2]: >10

N#CC[C@H](C1CCCC1)n1cc(-c2ncnc3[nH]ccc23)cn1 [Ruxolitinib, ruxolitinib]
(%) subjects Censored [3, 4]: (20.0) %
(%) subjects who died, Observed [3, 4]: (80.0) %
Number subjects Censored [3, 4]: 6
Number subjects who died, Observed [3, 4]: 24
Hazard ratio (Rux/Pbo) ([3]; subgroup CRP > 13 mg/L): 0.473
Hazard ratio (Rux/Pbo) ([3]; subgroup Karnofsky: 60-80): 0.799
Hazard ratio (Rux/Pbo) ([3]; subgroup Low albumin): 0.618
HR for progression-free survival (PFS) ([3]; intent-to-treat analysis including all randomized patients): 0.75
(%) of Subjects Censored [3, 5]: ( 19.4%)
(%) of Subjects Died, Observed [3, 5]: ( 80.6%)
Number of Subjects Censored [3, 5]: 6
Number of Subjects Died, Observed [3, 5]: 25
Median Time to Event [3, 6]: 83.0 days
Month 3 Survival Rate(%) [3, 6]: 48.4%
Month 6 Survival Rate(%) [3, 6]: 41.5%
Month 9 Survival Rate(%) [3, 6]: 16.5%
Month 12 Survival Rate(%) [3, 6]: 11.0%
Active vs Control Hazard Ratio ([3]; overall survival, C-Reactive Protein > 13 (μg/mL), Cox regression): 0.473
(%) of Subjects Censored [3, 7]: ( 28.6%)
(%) of Subjects Died, Observed [3, 7]: ( 71.4%)
Number of Subjects Censored [3, 7]: 8
Number of Subjects Died, Observed [3, 7]: 20
Median Time to Event [3, 8]: 185.5 days
Month 3 Survival Rate(%) [3, 8]: 82.1%
Month 6 Survival Rate(%) [3, 8]: 50.0%
Month 9 Survival Rate(%) [3, 8]: 37.3%
Month 12 Survival Rate(%) [3, 8]: 19.9%
Active vs Control Hazard Ratio ([3]; overall survival, C-Reactive Protein ≦ 13 (μg/mL), Cox regression): 0.887
Hazard Ratio, Treatment (ruxolitinib vs placebo) ([3]; overall survival, CRP > 13 mg/L, Cox regression accounting for baseline characteristics): 0.50 and 0.501
hazard ratio for PFS ([3]; patients with CRP<13 mg/L): 0.82
probability of PFS at 3 months [3, 9]: 39%
probability of PFS at 6 months [3, 9]: 25%
probability of PFS at 9 months [3, 9]: 10%
HR for PFS ([3]; patients with CRP>13 mg/L): 0.62
proportion showing disease stabilization (RECIST v1.1) ([3]; patients with CRP>13 mg/L receiving ruxolitinib with postbaseline assessments (N=19)): 68.4%
probability of progression-free survival at 3 months [3, 10]: 35%
probability of progression-free survival at 6 months [3, 10]: 21%
probability of progression-free survival at 9 months [3, 10]: 11%
HR for OS ([3]; patients with mGPS of 0 (N=51)): 0.91
HR for OS ([3]; patients with mGPS of 1 (N=34)): 0.71
HR for OS ([3]; patients with mGPS of 2 (N=36)): 0.49
HR (survival) ([3]; post-hoc analysis, patients with CRP≦10 mg/L (N=51)): 0.91
HR in favor of ruxolitinib (survival) ([3]; post-hoc analysis, patients with a CRP>10 mg/L (N=70)): 0.60
Number of Subjects with Disease Progression, Observed ([3]; Table 3, C-Reactive Protein ≦ 13 (μg/mL), ruxolitinib arm, N = 28): 26
Number of Subjects with Disease Progression, Observed ([3]; Table 4, C-Reactive Protein ≦ 13 (μg/mL), ruxolitinib arm, N = 31): 26
(%) of Subjects Censored [3, 11]: ( 7.1%)
(%) of Subjects with Disease Progression, Observed [3, 11]: ( 92.9%)
Median Time to Event [3, 11]: 80.0 days
Month 3 Survival Rate(%) [3, 11]: 39.3%
Month 6 Survival Rate(%) [3, 11]: 25.0%
Month 9 Survival Rate(%) [3, 11]: 10.0%
Number of Subjects Censored [3, 11]: 2
Active vs Control Hazard Ratio ([3]; progression-free survival, Table 3, C-Reactive Protein ≦ 13 (μg/mL)): 0.818
(%) of Subjects Censored [3, 12]: ( 16.1%)
(%) of Subjects with Disease Progression, Observed [3, 12]: ( 83.9%)
Median Time to Event [3, 12]: 48.0 days
Month 3 Survival Rate(%) [3, 12]: 34.5%
Month 6 Survival Rate(%) [3, 12]: 20.7%
Month 9 Survival Rate(%) [3, 12]: 11.0%
Month 12 Survival Rate(%) [3, 12]: 0.0%
Number of Subjects Censored [3, 12]: 5
Active vs Control Hazard Ratio ([3]; progression-free survival, Table 4, C-Reactive Protein ≦ 13 (μg/mL)): 0.619
